Data taken from US12114658B2, “Compounds having a nitrogen-containing unsaturated six-membered ring and agricultural and horticultural fungicides containing the same as active ingredients” (MITSUI CHEMICALS CROP & LIFE SOLUTIONS, INC., priority 2018, dated 2024).

How the values were obtained:
Magnaporthe grisea = assay: whole plant or invertebrate; assay type: in vivo; conditions: Pyricularia oryzae, in Oryza sativa, read-out: control value
Puccinia recondita = assay: Test Example E: brown rust on wheat; assay type: in vivo; conditions: 250 ppm spray (2.5 ml/pot) before inoculation, wheat variety Norin 61, investigated 7 to 10 days after inoculation
[1] = system: Colletotrichum orbiculare; assay: Test Example H: anthracnose on cucumber; conditions: in Cucumis sativus, read-out: control value
Protocol: (§1) Disease development in Test Examples described below was evaluated in increments of 0.05 by setting 0 as no incidence of disease and 3 as disease development in a plant of untreated group. Further, control values were calculated using the following equation based on disease development.
(§2) <Control Value> Control value=100{1−(n/3)} • n=Disease development of each treated group
Seeds of a test plant (cucumber variety: Sagami Hanjiro) were planted and cultivated until the first leaf appeared. In the test, the inventive compounds were dissolved into a dimethyl sulfoxide-methanol mixture solution (volume ratio: 9/1), and the resultant solutions were diluted with well water to a concentration of 250 ppm. The thus-obtained dilutions were sprayed to the test plant (2.5 ml/pot). After the dilutions dried, a conidial suspension (2-4×10^5 conidia/ml) of Colletotrichum orbiculare was inoculated to the plant by spraying. After the inoculation, the plant was kept in a mist chamber at room temperature of 20 to 23° C. for about 24 hours to promote the onset of disease. The disease development was investigated 6 to 10 days after the inoculation, and the effectiveness of the dilutions was evaluated.

Alternaia brassicicola = assay: Test Example C: Alternaria sooty spot on cabbage; conditions: Brassica oleracea, read-out: control value
Protocol: as §1, §2
Seeds of a test plant (cabbage variety: Shikidori) were planted and cultivated until the cotyledons extended. In the test, the inventive compounds were dissolved into a dimethyl sulfoxide-methanol mixture solution (volume ratio: 9/1), and the resultant solutions were diluted with well water to a concentration of 250 ppm. The thus-obtained dilutions were sprayed to the test plant (2.5 ml/pot). After the dilutions dried, a conidial suspension (4-8×10^5 conidia/ml) of Alternaia brassicicola was inoculated to the plant by spraying. After the inoculation, the plant was kept in a mist chamber at room temperature of 20 to 23° C. for about 48 hours to promote the onset of disease. The disease development was investigated 2 to 3 days after the inoculation, and the effectiveness of the dilutions was evaluated.

Measured: pest or weed control at 250 ppm

CCn1c(-c2ccc(OC)cc2)c(-n2ncc(C)c2Cl)cc(Cl)c1=O [PY-018, 3-chloro-5-(5-chloro-4-methyl-1H-pyrazol-1-yl)-1-ethyl-6-(4-methoxyphenyl)pyridine-2(1H)-one]
> 50%: all assays above

COc1ccc(-c2c(-n3cc(C)cn3)ccc(=O)n2CC(F)F)cc1 [PY-031, 1-(2,2-difluoroethyl)-6-(4-methoxyphenyl)-5-(4-methyl-1H-pyrazol-1-yl)pyridine-2(1H)-one]
> 50%: Alternaia brassicicola

COn1c(-c2ccc(F)cc2)c(-n2ncc(C)c2Cl)cc(Br)c1=O [PY-382, 3-bromo-5-(5-chloro-4-methyl-1H-pyrazol-1-yl)-6-(4-fluorophenyl)-1-methoxypyridin-2(1H)-one]
> 50%: all assays above

CCn1c(-c2ccc(F)cc2)c(-n2nccc2Cl)cc(Cl)c1=O [PY-104, 3-chloro-5-(5-chloro-1H-pyrazol-1-yl)-1-ethyl-6-(4-fluorophenyl)pyridine-2(1H)-one]
> 50%: all assays above

COn1c(-c2ccc(F)cc2)c(-n2cc(C)cn2)ccc1=O [PY-374, 6-(4-fluorophenyl)-1-methoxy-5-(4-methyl-1H-pyrazol-1-yl)pyridin-2(1H)-one]
> 50%: Alternaia brassicicola

CCn1c(-c2ccc(O)cc2)c(-n2ncc(C)c2Cl)cc(Cl)c1=O [PY-041, 3-chloro-5-(5-chloro-4-methyl-1H-pyrazol-1-yl)-1-ethyl-6-(4-hydroxyphenyl)pyridine-2(1H)-one]
> 50%: Magnaporthe grisea | Puccinia recondita | Alternaia brassicicola

CCn1c(-c2ccc(F)cc2)c(-n2nccc2C(F)(F)F)cc(Cl)c1=O [PY-090, 3-chloro-1-ethyl-6-(4-fluorophenyl)-5-(5-(trifluoromethyl)-1H-pyrazol-1-yl)pyridine-2(1H)-one]
> 50%: all assays above

CCn1c(-c2ccc(OC)cc2)c(-n2cc(C)cn2)ccc1=O [PY-036, 1-ethyl-6-(4-methoxyphenyl)-5-(4-methyl-1H-pyrazol-1-yl)pyridine-2(1H)-one]
> 50%: [1] | Alternaia brassicicola

CCn1c(-c2ccccc2)c(-n2cnc(Cl)c2Cl)cc(Cl)c1=O [IM-003, 3-chloro-5-(4,5-dichloro-1H-imidazol-1-yl)-1-ethyl-6-phenylpyridine-2(1H)-one]
> 50%: all assays above

COc1ccc(-c2c(-n3ncc(C)c3Cl)cc(Cl)c(=O)n2CC(F)F)cc1 [PY-032, 3-chloro-5-(5-chloro-4-methyl-1H-pyrazol-1-yl)-1-(2,2-difluoroethyl)-6-(4-methoxyphenyl)pyridine-2(1H)-one]
> 50%: all assays above

COn1c(-c2ccc(F)cc2)c(-n2cc(C)cn2)cc(Br)c1=O [PY-381, 3-bromo-6-(4-fluorophenyl)-1-methoxy-5-(4-methyl-1H-pyrazol-1-yl)pyridin-2 (1H)-one]
> 50%: [1] | Alternaia brassicicola

CCn1c(-c2ccc(OCC(F)F)cc2)c(-n2ncc(C)c2Cl)cc(Cl)c1=O [PY-046, 3-chloro-5-(5-chloro-4-methyl-1H-pyrazol-1-yl)-6-(4-(2,2-difluoroethoxy)phenyl)-1-eth ylpyridine-2(1H)-one]
> 50%: Magnaporthe grisea | Puccinia recondita | Alternaia brassicicola

CCn1c(-c2ccccc2)c(-n2cnc(Cl)c2Cl)ccc1=O [IM-001, 5-(4,5-dichloro-1H-imidazol-1-yl)-1-ethyl-6-phenylpyridine-2(1H)-one]
> 50%: all assays above
